Publication PMC4664966, “Discovery and characterization of novel inhibitors of the sodium-coupled citrate transporter (NaCT or SLC13A5)” (Scientific Reports, 2015)
Values after ≈ are worked out from the molar mass of the structure shown. “Also recorded” adds a separate entry of the source.

Assays:
[1] = Passive permeability, MDCK-LE cell monolayer; format: in vitro ADME; conditions: dog; MDCK-LE cell monolayer; read-out: Papp (apparent passive permeability)
Method: Passive permeability was assessed using MDCK-LE cell monolayer as described previously in Di et al., (2011)[44].

Plasma fraction unbound = format: in vitro ADME; conditions: mouse, read-out: mouse plasma fu
Aqueous solubility = format: physicochemical; conditions: aqueous medium at pH 7.4, pH 7.4, aqueous buffer; read-out: Solubility7.4
human hepatocytes = assay: U-[13C]-citrate uptake and incorporation into TCA cycle intermediates in human hepatocytes; format: cell-based; conditions: 500 μM U-[13C]-citrate, 30 μM compound
Method: Primary hepatocytes were given the indicated substrates (compound and labeled citrate) under the same conditions used to generate the IC50 curves. Incubations were stopped by rapidly removing culture media and adding 80% methanol pre-cooled in dry ice. Cellular debris was removed by centrifugation and samples dried by Speedvac. Dried cell extracts were then re-dissolved in 100 μL HPLC-grade water. Citrate uptake was analyzed by injecting a 10 μL aliquot of sample onto an Imtakt UK-Phenyl (2.1 mm × 150 mm) column (Imtakt USA, Philadelphia, PA, USA) using a Waters Acquity UPLC system (Waters Corp., Milford, MA, USA) coupled to a Thermo Q-Exactive mass spectrometer (Thermo Corp., San Jose, CA, USA). […] Metabolites were monitored using negative ion electrospray, ESI(-), in full scan mode with a resolution of 70,000 FWHM calibrated to mass accuracy <2 ppm. […] Citrate transport was determined through enrichment of ^13C6-citrate into the intracellular pool of citrate as determined by the percent ^13C6-citrate in the total pool. Fate of citrate carbon through one turn of the TCA cycle was analyzed by comparing percent labeling into the respective pools of ^13C4-fumarate, ^13C4-malate, and ^13C4-glutamate. Thermo LCQuan (Thermo Corp, San Jose, CA, USA) was used to extract out exact mass using a 5 ppm window at the calculated accurate mass for each metabolite and its isotopomer. […]

ATP-citrate lyase = ATP-citrate lyase (Homo sapiens, UniProt P53396); assay: ATP-citrate lyase interaction/inhibition; format: biochemical
Chain of ATP-citrate lyase (P53396 whole entry): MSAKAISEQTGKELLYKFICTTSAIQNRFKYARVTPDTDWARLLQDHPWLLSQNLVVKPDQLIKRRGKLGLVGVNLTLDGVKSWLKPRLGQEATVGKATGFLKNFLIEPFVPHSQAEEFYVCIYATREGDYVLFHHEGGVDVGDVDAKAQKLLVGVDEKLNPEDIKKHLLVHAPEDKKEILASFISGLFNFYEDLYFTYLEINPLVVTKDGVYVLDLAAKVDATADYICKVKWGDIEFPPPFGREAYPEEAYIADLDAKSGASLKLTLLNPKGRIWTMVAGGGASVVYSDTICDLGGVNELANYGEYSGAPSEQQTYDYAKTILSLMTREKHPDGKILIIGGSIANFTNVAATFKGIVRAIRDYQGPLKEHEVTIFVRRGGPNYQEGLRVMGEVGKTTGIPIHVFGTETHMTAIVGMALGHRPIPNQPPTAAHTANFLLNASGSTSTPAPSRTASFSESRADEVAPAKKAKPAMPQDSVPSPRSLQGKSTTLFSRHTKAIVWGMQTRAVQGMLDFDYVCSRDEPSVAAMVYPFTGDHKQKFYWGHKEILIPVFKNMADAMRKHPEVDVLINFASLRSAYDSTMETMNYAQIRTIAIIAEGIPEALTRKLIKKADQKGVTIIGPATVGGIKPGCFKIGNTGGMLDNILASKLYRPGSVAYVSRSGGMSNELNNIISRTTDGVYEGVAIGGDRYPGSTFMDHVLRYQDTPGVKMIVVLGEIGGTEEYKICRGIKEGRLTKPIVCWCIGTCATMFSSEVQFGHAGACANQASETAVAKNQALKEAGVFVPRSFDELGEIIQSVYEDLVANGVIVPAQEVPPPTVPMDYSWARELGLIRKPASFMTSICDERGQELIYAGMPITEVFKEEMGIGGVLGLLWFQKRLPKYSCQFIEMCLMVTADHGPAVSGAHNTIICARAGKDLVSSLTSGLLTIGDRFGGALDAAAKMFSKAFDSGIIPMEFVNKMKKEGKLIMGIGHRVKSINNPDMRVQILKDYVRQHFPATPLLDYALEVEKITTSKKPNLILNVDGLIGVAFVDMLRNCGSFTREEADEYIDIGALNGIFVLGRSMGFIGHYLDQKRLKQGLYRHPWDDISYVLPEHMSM

CYP2C8 = CYP2C8 (Homo sapiens, UniProt P10632); assay: Selectivity data (Table S1); format: in vitro ADME; conditions: 3 µM
[2] = molecular target: Cytochrome P450 2C8 (CYP2C8) (Homo sapiens, UniProt P10632); assay: Selectivity data (Table S1); format: in vitro ADME
CYP2D6 = CYP2D6 (Homo sapiens, UniProt P10635); assay: Selectivity data (Table S1); format: in vitro ADME; conditions: 3 µM
Chain of CYP2D6 (P10635 whole entry): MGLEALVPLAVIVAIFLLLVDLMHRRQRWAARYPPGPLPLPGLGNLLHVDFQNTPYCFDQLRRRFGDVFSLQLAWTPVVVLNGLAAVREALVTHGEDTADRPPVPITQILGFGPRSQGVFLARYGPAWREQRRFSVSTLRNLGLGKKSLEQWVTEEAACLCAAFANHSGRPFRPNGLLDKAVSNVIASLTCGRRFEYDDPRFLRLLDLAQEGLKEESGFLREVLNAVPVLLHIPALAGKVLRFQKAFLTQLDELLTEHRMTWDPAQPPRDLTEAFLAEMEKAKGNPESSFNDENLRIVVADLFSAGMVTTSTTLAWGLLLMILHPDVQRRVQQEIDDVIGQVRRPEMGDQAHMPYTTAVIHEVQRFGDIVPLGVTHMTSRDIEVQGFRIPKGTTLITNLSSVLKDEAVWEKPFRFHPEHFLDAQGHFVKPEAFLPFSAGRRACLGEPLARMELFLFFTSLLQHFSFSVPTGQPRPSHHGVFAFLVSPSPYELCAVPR

[3] = molecular target: Cytochrome P450 2D6 (CYP2D6) (Homo sapiens, UniProt P10635); assay: Selectivity data (Table S1); format: in vitro ADME
Chain of Cytochrome P450 2D6 (CYP2D6) (P10635 whole entry): as above

[4] = molecular target: Diacylglycerol acyltransferase 1 (DGAT1) (Homo sapiens, UniProt O75907); assay: Selectivity data (Table S1); format: biochemical
[5] = molecular target: Monoamine oxidase A (MAOA) (Homo sapiens, UniProt P21397); assay: Selectivity data (Table S1); format: biochemical
[6] = molecular target: Monoacylglycerol acyltransferase 1 (MGAT1) (Homo sapiens, UniProt Q96PD6); assay: Selectivity data (Table S1); format: biochemical
Chain of Monoacylglycerol acyltransferase 1 (MGAT1) (Q96PD6 whole entry): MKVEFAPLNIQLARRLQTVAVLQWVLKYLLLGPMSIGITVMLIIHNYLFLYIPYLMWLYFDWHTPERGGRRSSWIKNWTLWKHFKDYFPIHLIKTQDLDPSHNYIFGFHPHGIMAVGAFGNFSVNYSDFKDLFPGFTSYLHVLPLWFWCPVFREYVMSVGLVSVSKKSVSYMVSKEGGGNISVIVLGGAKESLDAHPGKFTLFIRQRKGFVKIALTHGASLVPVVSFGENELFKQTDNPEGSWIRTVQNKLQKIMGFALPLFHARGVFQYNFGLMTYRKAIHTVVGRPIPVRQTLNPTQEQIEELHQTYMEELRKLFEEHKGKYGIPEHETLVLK

[7] = molecular target: Monoacylglycerol acyltransferase 3 (MGAT3) (Homo sapiens, UniProt Q86VF5); assay: Selectivity data (Table S1); format: biochemical
[8] = molecular target: Phosphodiesterase 4D (PDE4D) (Homo sapiens, UniProt Q08499); assay: Selectivity data (Table S1); format: biochemical
[9] = molecular target: Phosphodiesterase 4D3 (PDE4D3) (Homo sapiens, UniProt Q08499); assay: Selectivity data (Table S1); format: biochemical
Chain of Phosphodiesterase 4D3 (PDE4D3) (Q08499 1-673 isoform Q08499-2): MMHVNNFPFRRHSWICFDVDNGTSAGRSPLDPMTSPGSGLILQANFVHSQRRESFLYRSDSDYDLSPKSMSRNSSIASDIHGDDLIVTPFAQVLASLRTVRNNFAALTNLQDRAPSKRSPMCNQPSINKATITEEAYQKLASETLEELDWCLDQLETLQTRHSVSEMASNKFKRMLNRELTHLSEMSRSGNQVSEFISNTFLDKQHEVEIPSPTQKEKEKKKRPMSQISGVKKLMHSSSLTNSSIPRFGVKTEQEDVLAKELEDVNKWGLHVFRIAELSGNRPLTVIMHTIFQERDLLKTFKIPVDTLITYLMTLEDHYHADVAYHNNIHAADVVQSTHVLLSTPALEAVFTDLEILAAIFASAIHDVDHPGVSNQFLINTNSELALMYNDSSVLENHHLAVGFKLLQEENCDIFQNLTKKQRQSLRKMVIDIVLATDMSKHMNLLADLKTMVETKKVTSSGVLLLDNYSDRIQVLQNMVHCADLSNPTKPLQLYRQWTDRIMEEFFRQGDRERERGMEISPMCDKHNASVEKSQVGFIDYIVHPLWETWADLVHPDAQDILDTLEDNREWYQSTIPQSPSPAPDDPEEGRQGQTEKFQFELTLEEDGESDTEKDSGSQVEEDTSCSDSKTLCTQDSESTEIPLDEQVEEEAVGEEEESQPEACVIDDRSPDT

[10] = molecular target: Phosphodiesterase 5A1 (PDE5A1) (Homo sapiens, UniProt O76074); assay: Selectivity data (Table S1); format: biochemical
[11] = molecular target: Adrenergic receptor, alpha-2B (ADRA2B) (Homo sapiens, UniProt P18089); assay: Selectivity data (Table S1); format: binding
[12] = molecular target: Adrenergic receptor, beta-2(ADRB2) (Homo sapiens, UniProt P07550); assay: Selectivity data (Table S1); format: binding
Chain of Adrenergic receptor, beta-2(ADRB2) (P07550 whole entry): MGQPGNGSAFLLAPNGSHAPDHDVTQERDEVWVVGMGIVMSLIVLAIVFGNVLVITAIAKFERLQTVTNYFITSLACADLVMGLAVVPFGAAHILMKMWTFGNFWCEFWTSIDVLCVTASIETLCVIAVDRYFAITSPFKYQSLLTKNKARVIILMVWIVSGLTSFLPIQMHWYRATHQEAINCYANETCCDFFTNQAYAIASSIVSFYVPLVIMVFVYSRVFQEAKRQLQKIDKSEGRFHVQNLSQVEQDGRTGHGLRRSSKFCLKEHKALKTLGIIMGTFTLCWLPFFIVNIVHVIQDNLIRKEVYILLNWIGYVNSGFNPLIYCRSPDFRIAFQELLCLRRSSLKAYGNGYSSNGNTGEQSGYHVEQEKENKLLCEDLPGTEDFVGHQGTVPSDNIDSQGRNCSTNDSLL

[13] = molecular target: Angiotensin II receptor type 1 (AGTR1) (Homo sapiens, UniProt P30556); assay: Selectivity data (Table S1); format: binding
[14] = molecular target: Cannabinoid receptor 1 (CB1) (Homo sapiens, UniProt P21554); assay: Selectivity data (Table S1); format: binding
Chain of Cannabinoid receptor 1 (CB1) (P21554 whole entry): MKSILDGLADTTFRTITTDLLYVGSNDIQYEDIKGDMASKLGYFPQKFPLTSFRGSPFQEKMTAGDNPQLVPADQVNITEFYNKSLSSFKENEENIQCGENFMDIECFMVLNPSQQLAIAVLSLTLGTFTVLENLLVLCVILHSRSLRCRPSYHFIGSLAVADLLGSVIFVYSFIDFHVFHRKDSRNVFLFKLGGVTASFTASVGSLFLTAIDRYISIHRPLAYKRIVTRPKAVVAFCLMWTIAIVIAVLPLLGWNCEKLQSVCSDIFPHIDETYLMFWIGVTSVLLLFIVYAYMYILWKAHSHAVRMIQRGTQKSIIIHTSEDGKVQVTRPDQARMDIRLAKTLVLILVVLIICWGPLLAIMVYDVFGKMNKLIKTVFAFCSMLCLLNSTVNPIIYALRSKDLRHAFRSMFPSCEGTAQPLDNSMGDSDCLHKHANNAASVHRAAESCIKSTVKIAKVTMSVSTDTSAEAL

Endothelin (ETA) = Endothelin (ETA) (Homo sapiens, UniProt P25101); assay: Selectivity data (Table S1); format: binding
Chain of Endothelin (ETA) (P25101 21-427): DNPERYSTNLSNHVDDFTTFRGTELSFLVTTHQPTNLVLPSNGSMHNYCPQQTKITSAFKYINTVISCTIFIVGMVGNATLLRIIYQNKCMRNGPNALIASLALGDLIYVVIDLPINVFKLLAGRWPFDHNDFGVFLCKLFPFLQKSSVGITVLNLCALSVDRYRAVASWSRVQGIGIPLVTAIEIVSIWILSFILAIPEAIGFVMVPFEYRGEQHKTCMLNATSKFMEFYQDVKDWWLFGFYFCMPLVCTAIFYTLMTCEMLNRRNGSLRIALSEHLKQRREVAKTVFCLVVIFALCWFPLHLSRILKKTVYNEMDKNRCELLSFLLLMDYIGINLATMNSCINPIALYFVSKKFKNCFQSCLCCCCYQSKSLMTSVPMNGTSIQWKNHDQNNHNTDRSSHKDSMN

[15] = molecular target: Muscarinic acetylcholine receptor 1 (M1) (Homo sapiens, UniProt P11229); assay: Selectivity data (Table S1); format: binding
[16] = molecular target: Muscarinic acetylcholine receptor 3 (M3) (Homo sapiens, UniProt P20309); assay: Selectivity data (Table S1); format: binding
[17] = molecular target: Opioid receptor, kappa 1 (OPRK1) (Homo sapiens, UniProt P41145); assay: Selectivity data (Table S1); format: binding
[18] = molecular target: Opioid receptor, mu (MOP) (Homo sapiens, UniProt P35372); assay: Selectivity data (Table S1); format: binding
Chain of Opioid receptor, mu (MOP) (P35372 whole entry): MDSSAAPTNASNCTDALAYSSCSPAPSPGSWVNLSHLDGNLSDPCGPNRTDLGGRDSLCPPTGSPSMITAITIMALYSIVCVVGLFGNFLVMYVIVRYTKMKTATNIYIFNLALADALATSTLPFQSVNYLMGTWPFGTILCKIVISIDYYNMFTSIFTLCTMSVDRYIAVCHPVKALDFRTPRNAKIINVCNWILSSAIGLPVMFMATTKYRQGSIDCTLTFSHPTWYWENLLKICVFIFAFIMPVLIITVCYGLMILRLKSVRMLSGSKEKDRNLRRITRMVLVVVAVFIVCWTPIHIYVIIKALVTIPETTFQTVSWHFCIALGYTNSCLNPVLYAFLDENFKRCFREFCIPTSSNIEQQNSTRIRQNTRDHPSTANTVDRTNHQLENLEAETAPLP

[19] = molecular target: Serotonin receptor 3 (5-HT3) (Homo sapiens, UniProt P46098); assay: Selectivity data (Table S1); format: binding
[20] = molecular target: Potassium voltage-gated channel, KQT-like subfamily, member 1 (KCNQ1) (Homo sapiens, UniProt P51787); assay: in vitro
Chain of Potassium voltage-gated channel, KQT-like subfamily, member 1 (KCNQ1) (P51787 whole entry, the tested form may be a part): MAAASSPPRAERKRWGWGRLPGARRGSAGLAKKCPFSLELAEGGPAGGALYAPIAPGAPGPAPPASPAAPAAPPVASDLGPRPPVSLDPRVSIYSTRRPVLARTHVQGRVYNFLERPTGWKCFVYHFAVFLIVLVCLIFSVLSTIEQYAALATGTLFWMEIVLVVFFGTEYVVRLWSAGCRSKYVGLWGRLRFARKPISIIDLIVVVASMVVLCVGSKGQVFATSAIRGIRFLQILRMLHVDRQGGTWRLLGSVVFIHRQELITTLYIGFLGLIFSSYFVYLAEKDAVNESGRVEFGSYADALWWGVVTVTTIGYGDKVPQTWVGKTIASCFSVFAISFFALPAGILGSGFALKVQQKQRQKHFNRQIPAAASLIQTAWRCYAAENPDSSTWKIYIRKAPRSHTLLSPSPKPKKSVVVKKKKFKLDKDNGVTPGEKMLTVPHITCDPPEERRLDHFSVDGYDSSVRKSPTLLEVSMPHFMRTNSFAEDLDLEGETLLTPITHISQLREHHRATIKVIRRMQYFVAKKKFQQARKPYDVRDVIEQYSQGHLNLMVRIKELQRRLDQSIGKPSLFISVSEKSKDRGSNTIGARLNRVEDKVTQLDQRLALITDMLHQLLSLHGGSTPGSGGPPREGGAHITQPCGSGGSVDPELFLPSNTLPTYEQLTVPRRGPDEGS

[21] = Steady state intravenous infusion in rat, tissue distribution

SMILES: CC(C)(C)c1ccc(CC[C@@](O)(CC(=O)O)C(=O)O)cc1 [Compound 2]
- Papp [1]: 1.4 ×10⁻⁶ cm/s
- fraction unbound (Plasma fraction unbound): 0.26
- solubility (Aqueous solubility): 33 mM (≈ 9710 µg/mL)
- genetic toxicity (Genetic toxicity assays): negative
- uniform labeling of citrate, malate, glutamate and fumarate from U-[13C]-citrate (human hepatocytes): reduced
- interaction/inhibition of ATP-citrate lyase (ATP-citrate lyase): no significant interaction/inhibition
- inhibition at 3 µM (CYP2C8): < 10%
- interaction/inhibition of CYP2C8 [2]: no significant interaction/inhibition
- inhibition at 3 µM (CYP2D6): < 10%
- interaction/inhibition of CYP2D6 [3]: no significant interaction/inhibition
- IC50 [4]: > 50 µM
- inhibition at 100 µM [5]: < 10%
- IC50 [6]: > 50 µM
- IC50 [7]: > 50 µM
- inhibition at 100 µM [8]: < 10%
- IC50 [9]: > 30 µM
- IC50 [10]: > 30 µM
- inhibition at 100 µM [11]: < 10%
- inhibition at 100 µM [12]: < 10%
- inhibition at 100 µM [13]: < 10%
- inhibition at 100 µM [14]: < 10%
- inhibition at 100 µM (Endothelin (ETA)): < 10%
- inhibition at 100 µM [15]: < 10%
- inhibition at 100 µM [16]: < 10%
- inhibition at 100 µM [17]: 13%
- inhibition at 100 µM [18]: < 10%
- inhibition at 100 µM [19]: < 10%
- inhibition at 10 µM [20]: < 10%
- brain penetration ([21]; steady state intravenous infusion): minimal brain penetration; also recorded: restricted in the brain
- uptake in liver and kidney compared to plasma ([21]; steady state intravenous infusion 0.27mg/kg/hour): significant uptake of the compound in the liver and kidney
